Here are results for 1 compound from patent publication US5663197A, “2-(1-hydroxyethyl)-5-hydroxynaphtho[2,3-b]furan-4,9-dione and antitumor agents comprising this compound” (priority 1992, dated 1997).

Converted amounts (≈) assume the structure as drawn.

Series [1] can be described thus: General toxicology in ICR mice. Conditions: mouse, in vivo, ICR mice (male).
Series [2] has as its system Human cervical carcinoma HeLa cells. Put plainly: In vitro antitumor test (trypan blue exclusion viable cell count), HeLa. It counts as cell-based. The method, then: (§1) An appropriate amount of NFD was dissolved in DMSO to give a 1.0 mg/ml stock solution, which was diluted as necessary before use.
(§2) The following cells in the late logarithmic phase were harvested after treatment with trypsin (containing 0.25% trypsin and 0.02% EDTA; 37° C., 3 min) and used in the test: human lung adenocarcinoma cell lines A-549, VMRC-LCD and SK-LU-1, human lung squamous cell carcinoma Calu-1 cells, human colon adenocarcinoma WiDr cells, human prostate cancer LNCaP cells, human vaginal squamous cell carcinoma A-431 cells, human cervical carcinoma HeLa cells, human cholangiocarcinoma HuCC-T1 cells, mouse skin cancer melanoma B16 (M4) cells, human pancreatic carcinoma ASPC-1 cells, human neuroblastoma IMR-132 cells, human lung small cell carcinoma SCCH-194 cells, human uninary bladder carcinoma T24 cells, human renal cell carcinoma […] cells, human gastric cancer NUGC-2 cells, human thyroid carcinoma 8305C cells, human hepatoma HUH-7 cells, human ovarian carcinoma TYK-nu cells and human chorio carcinoma BeWo cells. […] These cells were plated onto a 96-well microplate at a density of 5-10×10^3 cells/cm^2 using DMEM or RPMI-1640 medium containing 10% fetal bovine serum and cultured for 24 hours in a conventional manner, after which a pre-determined amount of NFD dissolved in DMSO was added to each well. […]

The test system of series [3] is Human neuroblastoma IMR-132 cells. Kind of series: In vitro antitumor test (trypan blue exclusion viable cell count), IMR-132. It counts as cell-based. The method, then: as §1, §2
The test system of series [4] is Human gastric cancer NUGC-2 cells. Put plainly: In vitro antitumor test (trypan blue exclusion viable cell count), NUGC-2. It counts as cell-based. How it is done: as §1, §2
Series [5] has as its system Human lung adenocarcinoma SK-LU-1 cells. Put plainly: In vitro antitumor test (trypan blue exclusion viable cell count), SK-LU-1. The class given is cell-based. Particulars: 72 h, three days exposure, read-out: LD50 (IC50), 50% growth-inhibitory dose. How it is done:
as §1, §2

Series [6] concerns Human thyroid carcinoma 8305C cells. Put plainly: In vitro antitumor test (trypan blue exclusion viable cell count), 8305C. The class given is cell-based. How it is done: as §1, §2
The subject of series [7] is Human lung squamous cell carcinoma Calu-1 cells. Put plainly: In vitro antitumor test (trypan blue exclusion viable cell count), Calu-1. It counts as cell-based. Particulars: 72 h, three days exposure, read-out: LD50 (IC50), 50% growth-inhibitory dose. The method, then:
as §1, §2

Series [8] concerns Human cholangiocarcinoma HuCC-T1 cells. Kind of series: In vitro antitumor test (trypan blue exclusion viable cell count), HuCC-T1. It counts as cell-based. How it is done: as §1, §2
Series [9] deals with Human vaginal squamous cell carcinoma A-431 cells. Put plainly: In vitro antitumor test (trypan blue exclusion viable cell count), A-431. The class given is cell-based. The method, then: as §1, §2
The test system of series [10] is Human renal cell carcinoma VMRC-RCW cells. Kind of series: In vitro antitumor test (trypan blue exclusion viable cell count), VMRC-RCW. It counts as cell-based. How it is done: as §1
as §2, with “cells. Suspension cultures of human breast cancer MRK-nu-1 cells, human malignant B-cell lymphoma cells and human chronic myelogenous leukemia K562 cells were used to harvest the cells to be used in the test.” for “cells.”, “well. Cultivation was continued, and the number of viable cells was counted after 24, 48 and 72 hours.” for “well.”
Growth inhibitory action and lethal activity of NFD on various types of malignant tumor cells and normal human cells listed above were evaluated by counting the number of viable cells in each well of the 96-well microplate. […]

The mark [11] stands for this setting: 72 h, three days exposure, read-out: LD50 (IC50), 50% growth-inhibitory dose.

Turning to `CC(O)c1cc2c(o1)C(=O)c1cccc(O)c1C2=O` (stereo not shown) [NFD, 2-(1-hydroxyethyl)-5-hydroxynaphtho[2,3-b]furan-4,9-dione], the LD50 (usually the dose at which mortality reaches 50%) in [1] (ip, intraperitoneally) is 7.3 mg/kg; in [1] (po, orally), 8.4 mg/kg. For the same compound, the IC50 (commonly the midpoint of a concentration-inhibition curve) in series [2] (setting [11]) is 0.018 µg/mL (≈ 0.0697 µM); in [3] (72 h, IMR-132, three days exposure, read-out: LD50 (IC50), 50% growth-inhibitory dose), 0.01 µg/mL (≈ 0.0387 µM); in [4] (72 h, NUGC-2, three days exposure, read-out: LD50 (IC50), 50% growth-inhibitory dose), 0.017 µg/mL (≈ 0.0658 µM); in series [5] it was 0.017 µg/mL (≈ 0.0658 µM); in [6] (setting [11]), 0.025 µg/mL (≈ 0.0968 µM); in series [7], 0.017 µg/mL (≈ 0.0658 µM). In addition, the IC50 in series [8] (HuCCT-1, 72 h, HuCC-T1, three days exposure, read-out: LD50 (IC50), 50% growth-inhibitory dose) turned out to be 0.02 µg/mL (≈ 0.0775 µM); in series [9] (setting [11]), 0.021 µg/mL (≈ 0.0813 µM); in series [10] (Homo sapiens, 72 h, VMRC-RCW, three days exposure, read-out: LD50 (IC50), 50% growth-inhibitory dose), 0.019 µg/mL (≈ 0.0736 µM). The IC (almost complete) in [2] (FIG. 8, read-out: concentration inhibiting growth almost completely) came to 0.0224 µg/mL; in series [3] (FIG. 14, read-out: concentration inhibiting growth almost completely) it was 0.0447 µg/mL; in [4] (FIG. 18, read-out: concentration inhibiting cells almost completely) it was 0.033 µg/mL; in [6] (FIG. 19, read-out: concentration inhibiting growth almost completely), 0.028 µg/mL; in series [8] (HuCCT-1, FIG. 9, read-out: concentration inhibiting growth almost completely), 0.0224 µg/mL; in [9] (FIG. 7, read-out: concentration inhibiting growth almost completely), 0.0279 µg/mL. For the same compound, the IC (almost complete) in series [10] (Homo sapiens, FIG. 17, read-out: concentration inhibiting growth almost completely) came out at 0.017 µg/mL. The “concentration causing necrosis in almost all tumor cells” value in series [10] (FIG. 17) was 50 ng/mL.
